Experimental findings from patent publication US11590076B2, “Cryogel scaffold capable of controlling degree of degradation and soft bio-integrated device in which drug modulating immunosuppressive action in solid microenvironment is loaded in same scaffold” (Research & Business Foundation Sungkyunkwan University, priority 2017, dated 2023) are described below.

For series [1], the system named is myeloid-derived-suppressor cells (MDSCs). In words: Gemcitabine-induced apoptosis of MDSCs (FITC Annexin V). The class given is cell-based, mouse. As to conditions: various gemcitabine concentrations, FIG. 31B. How it is done:
Gemcitabine induces apoptosis of myeloid-derived-suppressor cells (MDSCs) in vitro. The spleen was extracted from a mouse harboring 4T1 tumors for 28 days, the extracted spleen was ground, and RBCs were removed therefrom using an RBC lysis buffer. The RBC-removed spleen cells were re-dispersed in a MACS buffer (PBS, 0.5% BSA, […]), MDSCs were isolated using an MDSC isolation kit (Miltenyi Biotec). The isolated myeloid-derived-suppressor cells were seeded in a 6-well plate at a density of 2×10^6 cells/well, and incubated with various concentrations of gemcitabine. The gemcitabine-induced apoptosis of the MDSCs was assessed according to the protocol of an FITC Annexin V Apoptosis kit (BD Biosciences).

The test system of the next series is 4T1 tumor. In words: In vivo anticancer effect after tumor resection and implantation of soft bio-integrated device. The conditions noted are these: day 7 and day 14, FIG. 38A. Set-up: species or system BALB/c mice. The method, then: When 1×10^6 4T1 cells were injected and the size of a growing tumor became 300 mm^3 on day 14 after injection, the tumor was partially resected. A mouse was anesthetized using 2,2,2-tribromoethanol. The surgical site was sterilized with 70% ethanol, and 90% of the tumor was resected so that 10% of the tumor remained. A scaffold was implanted near the remaining part of the tumor.
On day 7 and day 14 after tumor removal and implantation of a soft bio-integrated device, a mouse was sacrificed, and a tumor, the spleen and a lymph node of the sacrificed mouse were isolated to measure weights thereof.
The tumor and lymph node were cut into small pieces, dispersed in DMEM containing collagenase D, stored for 1 hour at 37° C. and 90 rpm, and then filtered through a 70-μm strainer. The spleen was physically disrupted, and then RBCs were removed using an RBC lysis buffer. The tumor and spleen dispersed as single cells by the above-described method were analyzed using APC-anti-CD11b and PE-anti-Gr1 antibodies to confirm myeloid-derived-suppressor cells and using APC-anti-CD3, PE-anti-CD4 and FITC-CD8 antibodies to confirm T cells. All antibodies were purchased from BD Pharmingen.
Moreover, to confirm tumor metastasis, on day 14 after the tumor removal, the mouse was sacrificed to confirm metastasis. […]

The test system of a further series is BMDCs. In words: Activation of BMDCs using gemcitabine-treated 4T1 breast cancer cell line. The class given is cell-based, mouse. The conditions noted are these: gemcitabine-treated breast cancer cell line versus control, FIG. 31D. The method, then: In addition, the activation of BMDCs using a gemcitabine-treated 4T1 breast cancer cell line was confirmed. The 4T1 cells were cultured with 1 μg/mL gemcitabine in a 6-well plate at a density of 2×10^6 cells/well. The gemcitabine-induced apoptosis of the 4T1 breast cancer cells was assessed according to the protocol of the FITC Annexin V Apoptosis kit (BD Biosciences). After 24 hours, a supernatant was collected, and then incubated with BMDCs. A BMDC activation marker was analyzed using an Accuri™ flow cytometer. Antibodies used herein were FITC-anti-CD11c and APC-anti-CD80 (BD Pharmingen).

In series [2] the test system is 4T1 breast cancer cell line. The series can be described thus: Gemcitabine-induced apoptosis of 4T1 breast cancer cells (FITC Annexin V). The class given is cell-based. As to conditions: change in gemcitabine concentration, FIG. 31C. How it is done:
In addition, the activation of BMDCs using a gemcitabine-treated 4T1 breast cancer cell line was confirmed. […] The gemcitabine-induced apoptosis of the 4T1 breast cancer cells was assessed according to the protocol of the FITC Annexin V Apoptosis kit (BD Biosciences). After 24 hours, a supernatant was collected, and then incubated with BMDCs. A BMDC activation marker was analyzed using an Accuri™ flow cytometer. Antibodies used herein were FITC-anti-CD11c and APC-anti-CD80 (BD Pharmingen).

Series [3] can be described thus: In vitro drug release behavior of soft bio-integrated device. The class given is physicochemical. The conditions noted are these: within one week, PBS (pH 7.4), 37° C., FIG. 31A. The method, then:
A scaffold in which gemcitabine, rhodamine-attached poly(I:C)/nanogel, and a 4T1 cell lysate were loaded was added to 1 mL of PBS (pH 7.4), and stored at 37° C. and 90 rpm. Every selected time interval, the original culture medium was obtained and exchanged with a fresh medium. An amount of gemcitabine released from the scaffold was measured using absorbance (275 nm, UV-1800; Shimadzu, Kyoto, Japan), the rhodamine-attached poly(I:C) was measured according to the protocol of the 5'[…] Nucleic Acid Labeling System (Vector Laboratories), and the 4T1 cell lysate was measured using the BCA assay method (Pierce Biotechnology). Specifically, a fluorescence spectrometer (PerkinElmer) was used to detect and analyze fluorescence at 552 nm (excitation) and 575 nm (emission) from the poly(I:C)/nanogel attached to rhodamine released from the scaffold.

Take `Nc1ccn([C@@H]2O[C@H](CO)[C@@H](O)C2(F)F)c(=O)n1` [gemcitabine]: the “dead cell percentage of MDSCs” value in series [1] was “increased as the gemcitabine concentration increased”. Also, the “MDSC proportion in the tumor and the spleen” value in the series with 4T1 tumor is “reduced”. Further, the “cell maturity of dendritic cells” value in the series with BMDCs is “increased”. Besides, the “dead cell percentage in breast cancer cell line (4T1)” value in series [2] is reported as “increased as the gemcitabine concentration increased”. Also, the “accumulation amount of gemcitabine released from the scaffold” value in series [3] is listed as “approximately 90%”.
